{"source": "paper PMC5762315", "about": "“Inhibition of polo-like kinase 4 (PLK4): a new therapeutic option for rhabdoid tumors and pediatric medulloblastoma” (Oncotarget, 2017)", "assay_in_all_cases": "LanthaScreen Eu Kinase Binding Assay, panel of 486 biochemical kinase assays", "key": {"various kinases [1]": {"biological_target": "various kinases (Homo sapiens, UniProt O43353)", "details": "kinase RIPK2; LanthaScreen Binding"}, "various kinases [2]": {"biological_target": "various kinases (Homo sapiens, UniProt P06493)", "details": "CDK1/cyclin A2"}, "various kinases [3]": {"biological_target": "various kinases (Homo sapiens, UniProt P07949, G691S)", "sequence (P07949 29-1114 G691S)": "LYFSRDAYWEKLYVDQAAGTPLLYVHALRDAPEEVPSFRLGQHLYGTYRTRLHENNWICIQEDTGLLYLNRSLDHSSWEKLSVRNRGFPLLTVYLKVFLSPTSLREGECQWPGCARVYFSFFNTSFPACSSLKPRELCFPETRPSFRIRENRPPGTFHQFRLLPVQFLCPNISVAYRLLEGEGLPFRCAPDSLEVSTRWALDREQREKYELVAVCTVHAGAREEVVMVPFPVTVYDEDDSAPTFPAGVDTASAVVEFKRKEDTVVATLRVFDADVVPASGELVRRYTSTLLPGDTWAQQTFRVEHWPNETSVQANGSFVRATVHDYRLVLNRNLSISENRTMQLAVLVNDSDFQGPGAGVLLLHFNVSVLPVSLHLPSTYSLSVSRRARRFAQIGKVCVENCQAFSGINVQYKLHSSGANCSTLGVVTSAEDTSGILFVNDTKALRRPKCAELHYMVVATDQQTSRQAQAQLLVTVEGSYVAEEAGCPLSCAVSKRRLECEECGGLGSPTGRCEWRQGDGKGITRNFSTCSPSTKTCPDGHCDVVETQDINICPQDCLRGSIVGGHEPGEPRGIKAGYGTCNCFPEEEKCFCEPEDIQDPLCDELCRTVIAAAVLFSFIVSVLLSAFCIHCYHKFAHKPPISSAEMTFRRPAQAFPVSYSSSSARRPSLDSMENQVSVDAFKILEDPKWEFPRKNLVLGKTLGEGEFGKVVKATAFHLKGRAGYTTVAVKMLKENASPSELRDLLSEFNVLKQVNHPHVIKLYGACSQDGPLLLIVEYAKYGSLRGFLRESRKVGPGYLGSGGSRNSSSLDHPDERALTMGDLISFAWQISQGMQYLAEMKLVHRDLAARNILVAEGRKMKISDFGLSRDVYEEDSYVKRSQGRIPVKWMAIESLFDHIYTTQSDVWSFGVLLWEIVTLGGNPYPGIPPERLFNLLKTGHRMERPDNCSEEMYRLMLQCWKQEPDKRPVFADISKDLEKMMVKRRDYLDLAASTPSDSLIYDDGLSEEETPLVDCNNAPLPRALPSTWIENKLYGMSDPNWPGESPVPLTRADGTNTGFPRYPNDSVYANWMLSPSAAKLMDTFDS", "details": "kinase RET G691S; LanthaScreen Binding"}, "various kinases [4]": {"biological_target": "various kinases (Homo sapiens, UniProt P11362, V561M)", "details": "FGFR1 V561M"}, "various kinases [5]": {"biological_target": "various kinases (Homo sapiens, UniProt P15056, V600E)", "details": "BRAF V599E"}, "various kinases [6]": {"biological_target": "various kinases (Homo sapiens, UniProt P22607, G697C)", "details": "FGFR3 G697C"}, "various kinases [7]": {"biological_target": "various kinases (Homo sapiens, UniProt P30291)", "sequence (P30291 whole entry)": "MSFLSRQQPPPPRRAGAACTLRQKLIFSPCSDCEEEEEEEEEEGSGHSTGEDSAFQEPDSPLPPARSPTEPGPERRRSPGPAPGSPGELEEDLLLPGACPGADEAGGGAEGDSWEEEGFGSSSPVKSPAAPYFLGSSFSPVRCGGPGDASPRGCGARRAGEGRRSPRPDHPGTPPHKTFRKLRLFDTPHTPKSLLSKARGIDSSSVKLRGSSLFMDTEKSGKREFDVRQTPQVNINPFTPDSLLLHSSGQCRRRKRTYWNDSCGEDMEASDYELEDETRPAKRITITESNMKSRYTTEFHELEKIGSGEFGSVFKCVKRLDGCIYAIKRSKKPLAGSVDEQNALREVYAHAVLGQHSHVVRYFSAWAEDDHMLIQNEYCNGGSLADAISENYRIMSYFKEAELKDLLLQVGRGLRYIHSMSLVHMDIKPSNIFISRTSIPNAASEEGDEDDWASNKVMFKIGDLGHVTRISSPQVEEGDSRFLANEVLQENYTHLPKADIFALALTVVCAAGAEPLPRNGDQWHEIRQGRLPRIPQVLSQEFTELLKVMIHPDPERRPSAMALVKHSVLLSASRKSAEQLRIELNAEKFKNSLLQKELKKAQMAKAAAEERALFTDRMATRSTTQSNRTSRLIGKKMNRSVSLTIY", "details": "kinase WEE1; LanthaScreen Binding"}, "various kinases [8]": {"biological_target": "various kinases (Homo sapiens, UniProt P30530, R499C)", "details": "AXL R499C"}, "various kinases [9]": {"biological_target": "various kinases (Homo sapiens, UniProt P52564)", "details": "MAP2K6 (MKK6)"}, "various kinases [10]": {"biological_target": "various kinases (Homo sapiens, UniProt Q00536)", "details": "CDK16 (PCTK1)/cyclin Y"}, "various kinases [11]": {"biological_target": "various kinases (Homo sapiens, UniProt Q04771, R206H)", "details": "ACVR1 (ALK2) R206H"}, "various kinases [12]": {"biological_target": "various kinases (Homo sapiens, UniProt Q15208)", "sequence (Q15208 whole entry)": "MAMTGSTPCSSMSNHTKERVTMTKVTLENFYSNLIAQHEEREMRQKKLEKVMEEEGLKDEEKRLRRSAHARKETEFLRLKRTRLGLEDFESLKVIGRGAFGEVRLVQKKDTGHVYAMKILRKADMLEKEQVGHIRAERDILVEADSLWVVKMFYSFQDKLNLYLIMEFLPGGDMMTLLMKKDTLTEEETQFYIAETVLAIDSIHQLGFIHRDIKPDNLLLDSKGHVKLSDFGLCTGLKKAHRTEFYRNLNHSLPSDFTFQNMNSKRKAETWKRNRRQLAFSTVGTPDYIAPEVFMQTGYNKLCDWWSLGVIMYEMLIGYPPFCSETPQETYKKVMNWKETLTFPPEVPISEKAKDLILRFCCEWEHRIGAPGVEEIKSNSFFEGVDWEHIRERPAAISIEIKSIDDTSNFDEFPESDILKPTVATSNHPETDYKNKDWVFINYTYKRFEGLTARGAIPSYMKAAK", "details": "kinase STK38 (NDR); LanthaScreen Binding"}, "various kinases [13]": {"biological_target": "various kinases (Homo sapiens, UniProt Q16513)", "sequence (Q16513 whole entry)": "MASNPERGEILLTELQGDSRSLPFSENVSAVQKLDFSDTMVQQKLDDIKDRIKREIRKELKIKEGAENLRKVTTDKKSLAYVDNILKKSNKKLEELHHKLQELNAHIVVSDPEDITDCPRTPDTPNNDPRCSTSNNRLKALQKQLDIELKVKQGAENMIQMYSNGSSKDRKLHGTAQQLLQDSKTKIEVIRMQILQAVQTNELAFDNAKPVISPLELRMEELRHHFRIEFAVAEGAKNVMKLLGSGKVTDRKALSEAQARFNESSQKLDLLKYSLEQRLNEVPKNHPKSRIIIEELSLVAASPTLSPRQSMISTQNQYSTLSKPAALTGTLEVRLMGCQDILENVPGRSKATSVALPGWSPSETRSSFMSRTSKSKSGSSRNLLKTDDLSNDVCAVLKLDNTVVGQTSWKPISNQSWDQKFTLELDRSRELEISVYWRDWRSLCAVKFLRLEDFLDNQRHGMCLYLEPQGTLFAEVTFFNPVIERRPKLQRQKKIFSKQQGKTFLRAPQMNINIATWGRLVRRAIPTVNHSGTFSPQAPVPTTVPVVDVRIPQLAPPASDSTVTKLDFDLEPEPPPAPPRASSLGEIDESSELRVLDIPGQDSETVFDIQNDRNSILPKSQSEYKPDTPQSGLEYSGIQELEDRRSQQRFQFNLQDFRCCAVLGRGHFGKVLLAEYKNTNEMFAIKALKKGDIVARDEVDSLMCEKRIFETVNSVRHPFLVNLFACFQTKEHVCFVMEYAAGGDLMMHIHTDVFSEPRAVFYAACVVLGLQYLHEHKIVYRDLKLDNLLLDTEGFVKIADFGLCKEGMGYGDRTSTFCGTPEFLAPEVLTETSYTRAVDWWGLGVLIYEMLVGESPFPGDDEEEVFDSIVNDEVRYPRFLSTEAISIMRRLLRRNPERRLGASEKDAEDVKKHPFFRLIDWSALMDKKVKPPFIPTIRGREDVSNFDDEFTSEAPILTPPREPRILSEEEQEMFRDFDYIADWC", "details": "kinase PKN2 (PRK2); LanthaScreen Binding"}, "various kinases [14]": {"biological_target": "various kinases (Homo sapiens, UniProt Q16584)", "details": "MAP3K11 (MLK3)"}, "various kinases [15]": {"biological_target": "various kinases (Homo sapiens, UniProt Q2M2I8)", "details": "AAK1"}, "various kinases [16]": {"biological_target": "T1, various kinases (Homo sapiens, UniProt Q8IYT8)", "T1 sequence (Q8IYT8 1-1036)": "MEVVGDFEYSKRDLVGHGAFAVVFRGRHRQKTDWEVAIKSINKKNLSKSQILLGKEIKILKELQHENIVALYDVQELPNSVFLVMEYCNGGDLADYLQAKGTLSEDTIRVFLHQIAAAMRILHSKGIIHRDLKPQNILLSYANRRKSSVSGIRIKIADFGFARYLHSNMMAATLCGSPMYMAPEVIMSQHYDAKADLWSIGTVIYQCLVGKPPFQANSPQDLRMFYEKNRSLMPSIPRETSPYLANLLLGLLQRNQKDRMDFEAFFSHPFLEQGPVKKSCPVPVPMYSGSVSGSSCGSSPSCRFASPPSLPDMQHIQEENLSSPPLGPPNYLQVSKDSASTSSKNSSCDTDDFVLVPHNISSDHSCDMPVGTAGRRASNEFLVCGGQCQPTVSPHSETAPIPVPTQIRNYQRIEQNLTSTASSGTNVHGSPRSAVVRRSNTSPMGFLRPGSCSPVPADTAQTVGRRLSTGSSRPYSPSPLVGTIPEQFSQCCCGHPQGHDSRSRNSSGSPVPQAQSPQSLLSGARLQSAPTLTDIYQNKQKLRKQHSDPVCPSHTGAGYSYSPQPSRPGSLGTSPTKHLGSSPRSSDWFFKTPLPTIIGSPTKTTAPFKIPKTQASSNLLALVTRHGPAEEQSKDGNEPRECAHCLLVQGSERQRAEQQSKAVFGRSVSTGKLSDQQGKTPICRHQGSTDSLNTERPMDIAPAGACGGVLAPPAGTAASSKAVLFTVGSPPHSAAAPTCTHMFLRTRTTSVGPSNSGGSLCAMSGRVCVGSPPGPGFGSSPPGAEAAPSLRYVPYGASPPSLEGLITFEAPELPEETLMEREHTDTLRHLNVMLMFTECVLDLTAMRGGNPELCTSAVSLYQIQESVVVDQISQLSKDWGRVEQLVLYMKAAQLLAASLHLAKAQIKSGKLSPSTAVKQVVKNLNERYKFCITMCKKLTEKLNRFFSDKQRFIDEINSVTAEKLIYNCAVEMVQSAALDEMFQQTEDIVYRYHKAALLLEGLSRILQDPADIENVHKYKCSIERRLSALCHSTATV", "details": "kinase ULK2; LanthaScreen Binding"}, "various kinases [17]": {"biological_target": "various kinases (Homo sapiens, UniProt Q8TD08)", "details": "MAPK15 (ERK7)"}, "various kinases [18]": {"biological_target": "various kinases (Homo sapiens, UniProt Q9BYT3)", "sequence (Q9BYT3 whole entry)": "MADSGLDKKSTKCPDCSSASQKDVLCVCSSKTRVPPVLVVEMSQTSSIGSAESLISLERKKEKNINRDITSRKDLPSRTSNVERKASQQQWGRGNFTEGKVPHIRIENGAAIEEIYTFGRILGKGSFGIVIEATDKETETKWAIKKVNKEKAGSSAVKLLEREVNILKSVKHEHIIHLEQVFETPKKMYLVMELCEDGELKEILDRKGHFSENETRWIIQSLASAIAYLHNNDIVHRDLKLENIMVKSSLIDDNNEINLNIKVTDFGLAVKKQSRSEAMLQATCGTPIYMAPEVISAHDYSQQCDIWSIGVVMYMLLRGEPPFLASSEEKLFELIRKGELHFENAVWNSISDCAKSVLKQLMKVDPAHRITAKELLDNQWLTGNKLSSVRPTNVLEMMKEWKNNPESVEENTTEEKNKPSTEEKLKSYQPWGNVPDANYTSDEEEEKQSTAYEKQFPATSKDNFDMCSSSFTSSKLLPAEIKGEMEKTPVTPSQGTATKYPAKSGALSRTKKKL", "details": "kinase STK33; LanthaScreen Binding"}, "various kinases [19]": {"biological_target": "various kinases (Homo sapiens, UniProt Q9H2G2)", "sequence (Q9H2G2 whole entry)": "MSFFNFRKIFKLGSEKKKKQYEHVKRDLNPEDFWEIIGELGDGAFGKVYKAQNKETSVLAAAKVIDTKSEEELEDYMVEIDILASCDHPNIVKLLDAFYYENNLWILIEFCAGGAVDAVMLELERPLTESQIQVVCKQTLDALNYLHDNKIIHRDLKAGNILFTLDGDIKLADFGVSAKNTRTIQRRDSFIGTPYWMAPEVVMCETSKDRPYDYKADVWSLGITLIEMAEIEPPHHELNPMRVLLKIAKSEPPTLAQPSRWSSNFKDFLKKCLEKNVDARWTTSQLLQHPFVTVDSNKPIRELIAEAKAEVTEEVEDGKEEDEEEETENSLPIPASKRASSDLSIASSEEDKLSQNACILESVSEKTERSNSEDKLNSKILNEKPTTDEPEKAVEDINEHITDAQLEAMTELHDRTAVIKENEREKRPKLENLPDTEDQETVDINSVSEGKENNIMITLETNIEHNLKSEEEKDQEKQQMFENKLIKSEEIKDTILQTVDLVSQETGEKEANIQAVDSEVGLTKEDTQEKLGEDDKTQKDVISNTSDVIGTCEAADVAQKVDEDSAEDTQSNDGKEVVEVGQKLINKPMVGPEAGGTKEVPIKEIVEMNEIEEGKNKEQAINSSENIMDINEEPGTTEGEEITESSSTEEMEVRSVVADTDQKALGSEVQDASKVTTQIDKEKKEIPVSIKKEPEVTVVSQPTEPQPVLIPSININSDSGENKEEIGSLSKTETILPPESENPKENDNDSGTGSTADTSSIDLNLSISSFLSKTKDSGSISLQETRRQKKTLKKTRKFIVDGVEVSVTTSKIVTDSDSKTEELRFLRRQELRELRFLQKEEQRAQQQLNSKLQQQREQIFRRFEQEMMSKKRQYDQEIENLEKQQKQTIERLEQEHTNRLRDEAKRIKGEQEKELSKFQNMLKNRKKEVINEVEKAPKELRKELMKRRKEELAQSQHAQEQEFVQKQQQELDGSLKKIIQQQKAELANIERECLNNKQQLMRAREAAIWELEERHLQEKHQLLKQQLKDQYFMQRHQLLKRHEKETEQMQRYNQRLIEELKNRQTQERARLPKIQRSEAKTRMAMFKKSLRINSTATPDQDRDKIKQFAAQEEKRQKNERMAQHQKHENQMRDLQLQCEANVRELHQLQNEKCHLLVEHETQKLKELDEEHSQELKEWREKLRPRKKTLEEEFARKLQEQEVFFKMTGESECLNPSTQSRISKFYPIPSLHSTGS", "details": "kinase SLK; LanthaScreen Binding"}, "various kinases [20]": {"biological_target": "various kinases (Homo sapiens, UniProt Q9UEW8)", "details": "kinase STK39 (STLK3); LanthaScreen Binding"}, "various kinases [21]": {"biological_target": "various kinases (Homo sapiens, UniProt Q9UKE5)", "details": "kinase TNIK; LanthaScreen Binding"}, "various kinases [22]": {"biological_target": "various kinases (Homo sapiens, UniProt Q9UM73, F1174L)", "details": "ALK F1174L"}, "various kinases [23]": {"biological_target": "various kinases (Homo sapiens, UniProt Q9UM73, R1275Q)", "details": "ALK R1275Q"}}, "note": "Several values for one entry are separate records, joined by “and”; a condition that tells them apart may be missing. Identical values can stand only once."}
{"smiles": "COc1ccc2c(c1)[C@]1(C[C@H]1c1ccc3c(/C=C/c4ccc(CN5C[C@@H](C)O[C@@H](C)C5)cc4)n[nH]c3c1)C(=O)N2", "note": "[CFI-400945]", "values": [{"measurement": "% Inhibition Average", "setting": "various kinases [1]", "result": 3, "unit": "%"}, {"measurement": "% Inhibition Duplicate #1", "setting": "various kinases [1]", "result": 3, "unit": "%"}, {"measurement": "% Inhibition Duplicate #2", "setting": "various kinases [1]", "result": 3, "unit": "%"}, {"measurement": "% Inhibition", "setting": "various kinases [2]", "result": "24% and 17%"}, {"measurement": "% Inhibition Average", "setting": "various kinases [3]", "result": -1, "unit": "%"}, {"measurement": "% Inhibition Duplicate #1", "setting": "various kinases [3]", "result": -11, "unit": "%"}, {"measurement": "% Inhibition Duplicate #2", "setting": "various kinases [3]", "result": 9, "unit": "%"}, {"measurement": "% Inhibition", "setting": "various kinases [4]", "result": "55% and 57%"}, {"measurement": "% Inhibition", "setting": "various kinases [5]", "result": "9% and 7%"}, {"measurement": "% Inhibition", "setting": "various kinases [6]", "result": "30% and 40%"}, {"measurement": "% Inhibition Average", "setting": "various kinases [7]", "result": -5, "unit": "%"}, {"measurement": "% Inhibition Duplicate #1", "setting": "various kinases [7]", "result": -7, "unit": "%"}, {"measurement": "% Inhibition Duplicate #2", "setting": "various kinases [7]", "result": -2, "unit": "%"}, {"measurement": "% Inhibition", "setting": "various kinases [8]", "result": "11% and 12%"}, {"measurement": "% Inhibition", "setting": "various kinases [9]", "result": 14, "unit": "%"}, {"measurement": "% Inhibition", "setting": "various kinases [10]", "result": "10% and 9%"}, {"measurement": "% Inhibition", "setting": "various kinases [11]", "result": "9% and 13%"}, {"measurement": "% Inhibition Average", "setting": "various kinases [12]", "result": 0, "unit": "%"}, {"measurement": "% Inhibition Duplicate #1", "setting": "various kinases [12]", "result": -5, "unit": "%"}, {"measurement": "% Inhibition Duplicate #2", "setting": "various kinases [12]", "result": 4, "unit": "%"}, {"measurement": "% Inhibition Average", "setting": "various kinases [13]", "result": 50, "unit": "%"}, {"measurement": "% Inhibition Duplicate #1", "setting": "various kinases [13]", "result": 48, "unit": "%"}, {"measurement": "% Inhibition Duplicate #2", "setting": "various kinases [13]", "result": 51, "unit": "%"}, {"measurement": "% Inhibition", "setting": "various kinases [14]", "result": "7% and -2%"}, {"measurement": "% Inhibition", "setting": "various kinases [15]", "result": "9% and 6%"}, {"measurement": "% Inhibition Average", "setting": "various kinases [16]", "result": 6, "unit": "%"}, {"measurement": "% Inhibition Duplicate #1", "setting": "various kinases [16]", "result": 2, "unit": "%"}, {"measurement": "% Inhibition Duplicate #2", "setting": "various kinases [16]", "result": 11, "unit": "%"}, {"measurement": "% Inhibition", "setting": "various kinases [17]", "result": "11% and 8%"}, {"measurement": "% Inhibition Average", "setting": "various kinases [18]", "result": -2, "unit": "%"}, {"measurement": "% Inhibition Duplicate #1", "setting": "various kinases [18]", "result": -2, "unit": "%"}, {"measurement": "% Inhibition Duplicate #2", "setting": "various kinases [18]", "result": -2, "unit": "%"}, {"measurement": "% Inhibition Average", "setting": "various kinases [19]", "result": 5, "unit": "%"}, {"measurement": "% Inhibition Duplicate #1", "setting": "various kinases [19]", "result": 4, "unit": "%"}, {"measurement": "% Inhibition Duplicate #2", "setting": "various kinases [19]", "result": 6, "unit": "%"}, {"measurement": "% Inhibition Average", "setting": "various kinases [20]", "result": 20, "unit": "%"}, {"measurement": "% Inhibition Duplicate #1", "setting": "various kinases [20]", "result": 18, "unit": "%"}, {"measurement": "% Inhibition Duplicate #2", "setting": "various kinases [20]", "result": 22, "unit": "%"}, {"measurement": "% Inhibition Average", "setting": "various kinases [21]", "result": 26, "unit": "%"}, {"measurement": "% Inhibition Duplicate #1", "setting": "various kinases [21]", "result": 33, "unit": "%"}, {"measurement": "% Inhibition Duplicate #2", "setting": "various kinases [21]", "result": 18, "unit": "%"}, {"measurement": "% Inhibition", "setting": "various kinases [22]", "result": "52% and 50%"}, {"measurement": "% Inhibition", "setting": "various kinases [23]", "result": 65, "unit": "%"}, {"measurement": "IC50", "setting": "various kinases [23]", "result": 444, "unit": "nM"}]}
